≈ marks a conversion by molar mass, not a printed value.
Legend:
[1] = test system: Klebsiella pneumoniae; assay: Antimicrobial activity against armA positive Klebsiella pneumoniae DU producing beta lactamase CTX-M-3 by Etest method; assay type: functional
[2] = test system: Escherichia coli; assay: Antimicrobial activity against Escherichia coli TOP10 by Etest method; assay type: functional
[3] = test system: Enterobacter cloacae; assay: Antimicrobial activity against armA positive Enterobacter cloacae BEH producing beta lactamase CTX-M-3 by Etest method; assay type: functional
[4] = test system: Escherichia coli; assay: Antimicrobial activity against armA positive Escherichia coli TOP10 producing beta lactamase CTX-M-3 with plasmid DU by Etest method; assay type: functional
[5] = test system: Escherichia coli; assay: Antimicrobial activity against rmtB positive Escherichia coli VOG producing beta lactamase CTX-M-14 by Etest method; assay type: functional
[6] = test system: Escherichia coli; assay: Antimicrobial activity against armA positive Escherichia coli MEZ producing beta lactamase CTX-M-3 by Etest method; assay type: functional
[7] = test system: Escherichia coli; assay: Antimicrobial activity against armA positive Escherichia coli TOP10 producing beta lactamase CTX-M-3 with plasmid BEH by Etest method; assay type: functional
[8] = test system: Escherichia coli; assay: Antimicrobial activity against armA positive Escherichia coli TOP10 producing beta lactamase CTX-M-3 with plasmid MEZ by Etest method; assay type: functional
[9] = test system: Escherichia coli; assay: Antimicrobial activity against Escherichia coli TOP10 harboring plasmid VOG2 expressing CTX-M-14 and AAC(6 )-Ib gene by Etest method; assay type: functional
[10] = test system: Escherichia coli; assay: Antimicrobial activity against beta lactamase CTX-M-14 producing Escherichia coli TOP10 harboring plasmid COP2 by Etest method; assay type: functional
[11] = test system: Escherichia coli; assay: Antimicrobial activity against armA positive Escherichia coli COP producing beta lactamase CTX-M-14 by Etest method
[12] = test system: Escherichia coli; assay: Antimicrobial activity against Escherichia coli TOP10 harboring plasmid VOG1 expressing RmtB, TEM-1, and QepA gene by Etest method; assay type: functional
[13] = test system: Escherichia coli; assay: Antimicrobial activity against armA positive Escherichia coli TOP10 harboring plasmid COP1 by Etest method; assay type: functional

Row | Molecule | MIC [1] | MIC [2] | MIC [3] | MIC [4] | MIC [5] | MIC [6] | MIC [7] | MIC [8] | MIC [9] | MIC [10] | MIC [11] | MIC [12] | MIC [13]
1 | NCC[C@H](O)C(=O)N[C@@H]1C[C@H](N)[C@@H](O[C@H]2O[C@H](CN)[C@@H](O)[C@H](O)[C@H]2O)[C@H](O)[C@H]1O[C@H]1O[C@H](CO)[C@@H](O)[C@H](N)[C@H]1O [AMIKACIN] | > 256 µg/mL | 1 µg/mL (≈ 1.71 µM) | > 256 µg/mL | > 256 µg/mL | > 256 µg/mL | > 256 µg/mL | > 256 µg/mL | > 256 µg/mL | 1.5 µg/mL (≈ 2.56 µM) | 1 µg/mL (≈ 1.71 µM) | > 256 µg/mL |  | 
2 | CO/N=C(\C(=O)N[C@@H]1C(=O)N2C(C(=O)O)=C(COC(C)=O)CS[C@H]12)c1csc(N)n1 [CEFOTAXIME] | > 32 µg/mL | 0.047 µg/mL (≈ 0.103 µM) | > 32 µg/mL | > 32 µg/mL | > 32 µg/mL | > 32 µg/mL | > 32 µg/mL | > 32 µg/mL |  | 8 µg/mL (≈ 17.6 µM) | > 32 µg/mL | 0.047 µg/mL (≈ 0.103 µM) | 0.047 µg/mL (≈ 0.103 µM)
3 | CC(C)(O/N=C(\C(=O)N[C@@H]1C(=O)N2C(C(=O)[O-])=C(C[n+]3ccccc3)CS[C@H]12)c1csc(N)n1)C(=O)O [CEFTAZIDIME] | 2 µg/mL (≈ 3.66 µM) | 0.38 µg/mL (≈ 0.695 µM) | 16 µg/mL (≈ 29.3 µM) | 2 µg/mL (≈ 3.66 µM) | 6 µg/mL (≈ 11 µM) | 3 µg/mL (≈ 5.49 µM) | 8 µg/mL (≈ 14.6 µM) | 3 µg/mL (≈ 5.49 µM) | 2 µg/mL (≈ 3.66 µM) | 1 µg/mL (≈ 1.83 µM) | 1 µg/mL (≈ 1.83 µM) | 0.38 µg/mL (≈ 0.695 µM) | 0.38 µg/mL (≈ 0.695 µM)
4 | O=C(O)c1cn(C2CC2)c2cc(N3CCNCC3)c(F)cc2c1=O [CIPROFLOXACIN] | 0.125 µg/mL (≈ 0.377 µM) | < 0.002 µg/mL |  | < 0.002 µg/mL | > 32 µg/mL | > 32 µg/mL | < 0.002 µg/mL | < 0.002 µg/mL |  |  | > 32 µg/mL |  | 
5 | C[C@@H](O)[C@H]1C(=O)N2C(C(=O)O)=C(SCCNC=N)C[C@H]12 [IMIPENEM ANHYDROUS] | 0.19 µg/mL (≈ 0.635 µM) | 0.19 µg/mL (≈ 0.635 µM) | 0.19 µg/mL (≈ 0.635 µM) | 0.19 µg/mL (≈ 0.635 µM) | 0.19 µg/mL (≈ 0.635 µM) | 0.19 µg/mL (≈ 0.635 µM) | 0.19 µg/mL (≈ 0.635 µM) | 0.19 µg/mL (≈ 0.635 µM) | 0.19 µg/mL (≈ 0.635 µM) | 0.19 µg/mL (≈ 0.635 µM) | 0.19 µg/mL (≈ 0.635 µM) | 0.19 µg/mL (≈ 0.635 µM) | 0.19 µg/mL (≈ 0.635 µM)
6 | CCN[C@@H]1C[C@H](N)[C@@H](O[C@H]2OC(CN)=CC[C@H]2N)[C@H](O)[C@H]1O[C@H]1OC[C@](C)(O)[C@H](NC)[C@H]1O [NETILMICIN] | > 256 µg/mL | 0.25 µg/mL (≈ 0.526 µM) | > 256 µg/mL | > 256 µg/mL | > 256 µg/mL | > 256 µg/mL | > 256 µg/mL | > 256 µg/mL | 1.5 µg/mL (≈ 3.15 µM) | 0.125 µg/mL (≈ 0.263 µM) | > 256 µg/mL |  | 
7 | CCn1cc(C(=O)O)c(=O)c2cc(F)c(N3CCNCC3)cc21 [NORFLOXACIN] | 0.75 µg/mL (≈ 2.35 µM) | < 0.016 µg/mL | 1 µg/mL (≈ 3.13 µM) | 0.016 µg/mL (≈ 0.0501 µM) | > 256 µg/mL | > 256 µg/mL | 0.016 µg/mL (≈ 0.0501 µM) | 0.016 µg/mL (≈ 0.0501 µM) | < 0.016 µg/mL | < 0.016 µg/mL | > 256 µg/mL | 0.032 µg/mL (≈ 0.1 µM) | < 0.016 µg/mL
8 | NC[C@H]1O[C@H](O[C@H]2[C@H](O)[C@@H](O[C@H]3O[C@H](CO)[C@@H](O)[C@H](N)[C@H]3O)[C@H](N)C[C@@H]2N)[C@H](N)C[C@@H]1O [TOBRAMYCIN] | > 256 µg/mL | 0.38 µg/mL (≈ 0.813 µM) | > 256 µg/mL | > 256 µg/mL | > 256 µg/mL | > 256 µg/mL | > 256 µg/mL | > 256 µg/mL | 3 µg/mL (≈ 6.42 µM) | 0.19 µg/mL (≈ 0.406 µM) | > 256 µg/mL |  | 
9 | GENTAMICIN | > 256 µg/mL | 0.25 µg/mL | > 256 µg/mL | > 256 µg/mL | > 256 µg/mL | > 256 µg/mL | > 256 µg/mL | > 256 µg/mL | 0.25 µg/mL | 0.125 µg/mL |  | > 256 µg/mL | > 256 µg/mL

Source: ChEMBL document CHEMBL1275569, “Plasmid-mediated 16S rRNA methylases among extended-spectrum beta-lactamase-producing Enterobacteriaceae isolates” (2008)
